From PubChem BioAssay AID1963846 (Molecular Pharmacology Branch, DTP, NCI, 2024)

Test system: 454973-116-R2-J3-PDC complex spheroid viability
Experiment: Anticancer human tumor 454973-116-R2-J3-PDC patient-derived pancreatic carcinoma cell line growth inhibition [POLQ]
Conditions: for IC50: curve of first compound; for viability, T/C: stronger effect = lower value; active = viability on the fitted dose curve at most 10% of control; inactive = the rest
Method in brief: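 Patient-derived tumour cells were co-cultured with HUVEC and mesenchymal stem cells as multicellular spheroids at 37 °C. They were treated with POLQ inhibitors (novobiocin, ART-558, RP6685) alone or combined with other agents. Top concentrations were at or near clinical Cmax (otherwise 10 microM; SN-38 at 1 microM), decreasing in half-log steps.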
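Also: spheroids exposed to drugs for seven days before measurement.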
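For viability, T/C in this document: percent viability relative to DMSO vehicle control wells taken as 100%.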

CC[C@@]1(O)C(=O)OCc2c1cc1n(c2=O)Cc2cc3c(CN(C)C)c(O)ccc3nc2-1 + Cc1cccc(N(C)C(=O)C2C(O)CCN2c2nc(C)cc(C(F)(F)F)c2C#N)c1
16.8 nM: IC50 (second compound 3.16 µM)
18.6 nM: IC50 (second compound 1 µM)
19.2 nM: IC50 (second compound 0.1 µM)
19.1 nM: IC50 (second compound 10 µM)
18.7 nM: IC50 (second compound 0.0316 µM)
18.1 nM: IC50 (second compound 0.316 µM)
inactive: viability, T/C (second compound 0.0316 µM, first compound 0.000316 µM) 92.2% | viability, T/C (second compound 0.0316 µM, first compound 0.001 µM) 102% | viability, T/C (second compound 0.0316 µM, first compound 0.00316 µM) 90.5% | viability, T/C (second compound 0.0316 µM, first compound 0.01 µM) 85.3% | viability, T/C (second compound 0.0316 µM, first compound 0.0316 µM) 20.4% | viability, T/C (second compound 0.0316 µM, first compound 0.1 µM) 16.1% | viability, T/C (second compound 0.1 µM, first compound 0.000316 µM) 104% | viability, T/C (second compound 0.1 µM, first compound 0.001 µM) 104% | viability, T/C (second compound 0.1 µM, first compound 0.00316 µM) 99.8% | viability, T/C (second compound 0.1 µM, first compound 0.01 µM) 88.6% | viability, T/C (second compound 0.1 µM, first compound 0.0316 µM) 20.2% | viability, T/C (second compound 0.1 µM, first compound 0.1 µM) 19.7% | viability, T/C (second compound 0.316 µM, first compound 0.000316 µM) 98.3% | viability, T/C (second compound 0.316 µM, first compound 0.001 µM) 118% | viability, T/C (second compound 0.316 µM, first compound 0.00316 µM) 113% | viability, T/C (second compound 0.316 µM, first compound 0.01 µM) 83.9% | viability, T/C (second compound 0.316 µM, first compound 0.0316 µM) 18.4% | viability, T/C (second compound 0.316 µM, first compound 0.1 µM) 16.5% | viability, T/C (second compound 1 µM, first compound 0.000316 µM) 103% | viability, T/C (second compound 1 µM, first compound 0.001 µM) 106% | viability, T/C (second compound 1 µM, first compound 0.00316 µM) 97.1% | viability, T/C (second compound 1 µM, first compound 0.01 µM) 84.9% | viability, T/C (second compound 1 µM, first compound 0.0316 µM) 19.6% | viability, T/C (second compound 1 µM, first compound 0.1 µM) 19.8% | viability, T/C (second compound 3.16 µM, first compound 0.000316 µM) 116% | viability, T/C (second compound 3.16 µM, first compound 0.001 µM) 106% | viability, T/C (second compound 3.16 µM, first compound 0.00316 µM) 105% | viability, T/C (second compound 3.16 µM, first compound 0.01 µM) 76% | viability, T/C (second compound 3.16 µM, first compound 0.0316 µM) 16.8% | viability, T/C (second compound 3.16 µM, first compound 0.1 µM) 19.8% | viability, T/C (second compound 10 µM, first compound 0.000316 µM) 107% | viability, T/C (second compound 10 µM, first compound 0.001 µM) 96.6% | viability, T/C (second compound 10 µM, first compound 0.00316 µM) 97.3% | viability, T/C (second compound 10 µM, first compound 0.01 µM) 85.6% | viability, T/C (second compound 10 µM, first compound 0.0316 µM) 21.3% | viability, T/C (second compound 10 µM, first compound 0.1 µM) 22.6%
